# BindingDB's records for patent US12128028 (Metrion Biosciences, 2024)
# pIC50: −log10 of the molar value.
# Biological target: Potassium voltage-gated channel subfamily A member 3 (Homo sapiens, UniProt P22001)
# Test: Biological Assay
# Method: The QPatch HT system (Sophion Bioscience A/S, Denmark) was used with the conventional whole-cell configuration. This system is an automated, chip-based planar patch clamp device allowing for up to 48 parallel independent experiments in one experimental assay run. Cells are added to each well and drawn by suction onto a small aperture to obtain a Gigaohm seal between the cell membrane and treated silicon surface, and whole-cell recordings initiated after access is achieved by suction and/or voltage pulses. The QPatch HT uses static perfusion, whereby a small volume of recording solution or drug is added to a reservoir on the chip and the solution perfuses across the cell through quartz-lined microfluidic channels; this solution is removed by capillary action when the next sample application is made.CHO-Kv1.3 cells were prepared for experiments by dissociation from T175 cell culture flasks using trypsin-EDTA (0.05%), cells were kept in serum free media in the cell hotel on board the QPatch HT. These cells were sampled, washed and re-suspended in extracellular recording solution by the QPatch HT immediately before application to the recording well site on the chip. Experiments were performed using the following solutions; extracellular solution contained (in mM); 150 NaCl, 10 KCl, 1 MgCl2, 3 CaCl2), 10 Glucose and 10 HEPES (pH 7.4, NaOH) and intracellular solution contained (in mM); 20 KCl, 120 KF, 10 HEPES, 10 EGTA, 5 ATP (pH 7.2, KOH).The potency (Inhibitory Concentration 50%, IC50) of synthesized compounds against Kv1.3 was determined from concentration-response relationships established by cumulatively applying four escalating concentrations of test compound to an individual cell and a minimum of N≥3 individual cells of data per compound were used to generate the IC50 value.
# Chain of Potassium voltage-gated channel subfamily A member 3 (P22001 whole entry): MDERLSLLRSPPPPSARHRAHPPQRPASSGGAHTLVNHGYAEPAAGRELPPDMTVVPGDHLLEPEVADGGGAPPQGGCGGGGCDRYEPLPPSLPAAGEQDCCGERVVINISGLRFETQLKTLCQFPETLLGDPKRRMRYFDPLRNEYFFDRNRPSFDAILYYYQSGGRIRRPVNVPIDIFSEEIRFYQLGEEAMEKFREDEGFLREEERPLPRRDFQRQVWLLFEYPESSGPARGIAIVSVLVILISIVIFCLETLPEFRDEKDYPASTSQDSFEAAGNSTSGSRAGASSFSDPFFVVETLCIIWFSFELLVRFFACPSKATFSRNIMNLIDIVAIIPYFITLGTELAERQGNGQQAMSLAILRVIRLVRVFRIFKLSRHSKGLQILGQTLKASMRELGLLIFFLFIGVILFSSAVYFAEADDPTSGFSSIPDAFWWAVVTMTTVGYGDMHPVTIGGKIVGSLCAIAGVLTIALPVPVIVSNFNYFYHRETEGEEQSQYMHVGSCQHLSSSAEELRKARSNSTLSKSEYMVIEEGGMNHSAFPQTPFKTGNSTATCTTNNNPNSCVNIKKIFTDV
row,SMILES,pIC50
1,"CC1(C)N=C(C23CC(N(Cc4ccc(Cl)c(F)c4)S(=O)(=O)c4ccccc4)(C2)C3)N[C@H]1C(=O)N1CCC[C@H](C(F)(F)F)C1 (racemic) [US12128028, Example 173]",6.99
2,"CC[C@@H]1N=C(C23CC(N(Cc4ccc(C(F)(F)F)cc4)S(=O)(=O)c4ccc(F)cc4)(C2)C3)N[C@@]1(C)C(=O)NCCC(F)(F)F (racemic) [US12128028, Example 235]",6.67
3,"CC[C@H]1N=C(C23CC(N(Cc4ccc(C(F)(F)F)cc4)S(=O)(=O)c4ccc(F)cc4)(C2)C3)N[C@@]1(C)C(=O)NCCC(F)(F)F (racemic) [US12128028, Example 259]",6.44
